The text below walks through data of ChEMBL document CHEMBL1133917, “Synthesis and pharmacology of modified amidine isoxazoline glycoprotein IIb/IIIa receptor antagonists” (Bioorg Med Chem Lett, 2001).

The subject of one experiment is Canis familiaris. The experiment can be described thus: Percent inhibition of aggregation of platelet rich plasma at a dose of 0.025 mg/kg, iv, in canine model after 30 min. It is filed as functional. To be noted: Canis lupus familiaris, 0.5 h.
On to `CCNC(=N)c1ccc(C2=NOC(CC(=O)NCCC(=O)O)C2)cc1` (centres undefined), for which testing at 0.025 mg/kg gave an inhibition in vivo of 70%.

The next experiment relates to Canis familiaris. The experiment can be described thus: Percent inhibition of aggregation of platelet rich plasma at a dose of 0.025 mg/kg, iv, in canine model at 24 hr. It is filed as functional. The conditions noted are these: Canis lupus familiaris.
In turn, `COc1ccccc1CNC(=N)c1ccc(C2=NO[C@@H](CC(=O)NC[C@H](NS(=O)(=O)c3ccccc3C)C(=O)O)C2)cc1` came in with an inhibition in vivo at 0.025 mg/kg of 80%.

Another experiment deals with Canis familiaris. Put plainly: Percent inhibition of ex vivo platelet aggregation of rich plasma at a dose of 0.025 mg/kg, iv, in canine model at 5 hrs. It is filed as functional. To be noted: Canis lupus familiaris.
In the case of `CCNC(=N)c1ccc(C2=NO[C@@H](CC(=O)NC[C@H](NS(=O)(=O)c3ccccc3C)C(=O)O)C2)cc1`, the inhibition in vivo at 0.025 mg/kg amounted to 40%.

The next experiment relates to Canis familiaris. The experiment can be described thus: Percent inhibition of aggregation of platelet rich plasma at a dose of 0.025 mg/kg, iv, in canine model at 5 hrs. Type of experiment: functional. To be noted: Canis lupus familiaris.
Take `CCNC(=N)c1ccc(C2=NOC(CC(=O)NCCC(=O)O)C2)cc1` (centres undefined): the inhibition in vivo at 0.025 mg/kg was found to be 20%.

The species entered for a further experiment is Homo sapiens. Put plainly: Concentration required for maximal in vitro inhibition of aggregation of human platelet rich plasma (hPRP). It is filed as functional.
Settings: not given
Take `N=C(N)c1ccc(C2=NO[C@@H](CC(=O)NCCC(=O)O)C2)cc1`: the IC50 came out at 60 nM.

For the compound `N/C(=N/Cc1ccccc1)c1ccc(C2=NO[C@@H](CC(=O)NCCC(=O)O)C2)cc1`, inhibition was half-maximal at 87 nM (IC50).

The compound `N=C(N)c1ccc(C2=NOC(CC(=O)NCCC(=O)O)C2)cc1` (centres undefined) returned an IC50 of 240 nM.

Turning to `Cc1noc(C)c1S(=O)(=O)N[C@@H](CNC(=O)C[C@H]1CC(c2ccc(C(=N)NCc3cccc(F)c3)cc2)=NO1)C(=O)O`, half-maximal inhibition (IC50) required 55 nM.

In the case of `CCNC(=N)c1ccc(C2=NO[C@@H](CC(=O)NC[C@H](NS(=O)(=O)c3cccc(C)c3)C(=O)O)C2)cc1`, the IC50 stood at 51 nM.

In turn, `COc1ccccc1CNC(=N)c1ccc(C2=NO[C@@H](CC(=O)NC[C@H](NS(=O)(=O)c3c(C)noc3C)C(=O)O)C2)cc1` gave an IC50 of 55 nM.

In turn, `COc1ccccc1CNC(=N)c1ccc(C2=NO[C@@H](CC(=O)NC[C@H](NS(=O)(=O)c3ccccc3C)C(=O)O)C2)cc1` showed an IC50 of 40 nM.

In the case of `CCNC(=N)c1ccc(C2=NO[C@@H](CC(=O)NC[C@H](NS(=O)(=O)c3ccccc3C)C(=O)O)C2)cc1`, 43 nM corresponded to half-maximal inhibition (IC50).

The compound `N/C(=N/Cc1ccccc1)c1ccc(C2=NOC(CC(=O)NCCC(=O)O)C2)cc1` (centres undefined) yielded an IC50 of 200 nM.

Compound `CC(C)CCNC(=N)c1ccc(C2=NOC(CC(=O)NCCC(=O)O)C2)cc1` (centres undefined) returned an IC50 of 1300 nM.

Compound `CCCCCNC(=N)c1ccc(C2=NOC(CC(=O)NCCC(=O)O)C2)cc1` (centres undefined) yielded an IC50 of 300 nM.

With `CCCCOC(=O)N[C@@H](CNC(=O)C[C@H]1CC(c2ccc(C(=N)NCC)cc2)=NO1)C(=O)O`, the IC50 was 82 nM.

As for `N/C(=N/Cc1cccc(F)c1)c1ccc(C2=NOC(CC(=O)NCCC(=O)O)C2)cc1` (centres undefined), the IC50 came to 12 nM.

`Cc1ccccc1S(=O)(=O)N[C@@H](CNC(=O)C[C@H]1CC(c2ccc(C(=N)N)cc2)=NO1)C(=O)O` showed an IC50 of 54 nM.

With `CCCCNC(=N)c1ccc(C2=NO[C@@H](CC(=O)NC[C@H](NS(=O)(=O)c3ccccc3C)C(=O)O)C2)cc1`, the midpoint of inhibition, the IC50, lay at 16 nM.

Consider `CCCCNC(=N)c1ccc(C2=NOC(CC(=O)NCCC(=O)O)C2)cc1` (centres undefined), for which the IC50 came to 20 nM.

With `COc1ccccc1CNC(=N)c1ccc(C2=NOC(CC(=O)NCCC(=O)O)C2)cc1` (centres undefined), the concentration for half-maximal inhibition (IC50) worked out at 32 nM.

For `CCCNC(=N)c1ccc(C2=NOC(CC(=O)NCCC(=O)O)C2)cc1` (centres undefined), half-maximal inhibition (IC50) required 120 nM.

With `Cc1cccc(S(=O)(=O)N[C@@H](CNC(=O)C[C@H]2CC(c3ccc(C(=N)N)cc3)=NO2)C(=O)O)c1`, the midpoint of inhibition, the IC50, lay at 50 nM.

Regarding `CCCCNC(=N)c1ccc(C2=NO[C@@H](CC(=O)NC[C@H](NC(=O)OCCCC)C(=O)O)C2)cc1`, the IC50 was determined as 62 nM.
